The source of these data is patent US20240000734A1, “PHARMACEUTICAL COMPOSITION HAVING AN ANALGAESIC AND AN ANTIHISTAMINE FOR TREATING RESPIRATORY DISEASES” (LABORATORIOS SILANES S.A. DE C.V., priority 2020, published 2024).

Series [1] relates to patients with uncomplicated acute bronchitis. As to conditions: cited from earlier work; for Adverse events: P=0.008; for median number of days with cough: oral, placebo 11 days, not statistically significant.
A short description of a further series: clinical. Conditions: both, human, in vivo, po, 800 mg.

As usually defined, the Cmax is the peak of the concentration-time curve. Broadly, the Tmax is the time at which the peak concentration occurs. For orientation: AUC means concentration integrated over time. In the case of `CC(C)Cc1ccc(C(C)C(=O)O)cc1` (racemic) [Ibuprofen, (±)-2-(4-isobutylphenyl) propionic acid], in series [1], the Adverse events is recorded as 5% and the “median number of days with cough” value was 9 days. Moreover, in “clinical”, the highest level (Cmax) was 54.6 µg/mL and the time to peak (Tmax) amounted to 1.35 ± 0.75 h. In “clinical” (AUC0^t), this compound gave an AUC of 185 µg·h/mL. The same compound registered an area under the curve (AUC) in “clinical” (AUC0^∞) of 192 µg·h/mL.
`CC1(C)S[C@@H]2[C@H](NC(=O)[C@H](N)c3ccc(O)cc3)C(=O)N2[C@H]1C(=O)O` [amoxicillin]: in series [1], the Adverse events was 12% and the “median number of days with cough” value is on record as 11 days.
